Experimental data: the supplement of paper PMC10627819

Columns and labels:
S. pneumoniae D39V [1] = test: fitness (endpoint OD595 vs no drug) (fraction); higher = more growth
Summary of the method: (§1)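 Fitness expresses the optical density reached at the stationary-phase transition as a fraction of the robust mean of no-drug control wells. It is capped at 1. Measurements were OD595 every 30 min for 14 h at 37 °C after inoculation of 384-well plates at OD595 0.01 (30 µl, or 55 µl for S. pneumoniae), minus the first reading.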

S. aureus DSM 20231 [2] = test: as above
Summary of the method: as §1

S. aureus Newman [3] = test: as above
Summary of the method: as §1

S. pneumoniae D39V [4] = test: Bliss interaction score (quartile over a dose matrix) (fitness difference); higher = more antagonism (negative = synergy)
Summary of the method: (§2)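 The Bliss score subtracts expected fitness, the product of the single-drug fitness values, from observed fitness. Fitness is plate-normalised OD595 at entry into stationary phase, relative to the robust no-drug mean and capped at 1, with single-drug fitness inferred from combinations. Summaries are quartiles over technical, biological and donor/recipient replicates.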

S. aureus DSM 20231 [5] = test: as above
Summary of the method: as §2

S. aureus Newman [6] = test: as above
Summary of the method: as §2

B. subtilis 168 = test: as above
Summary of the method: as §2
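For Bliss interaction score (quartile over a dose matrix) in this document: first quartile when negative (synergy) and third quartile when positive (antagonism).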

CC1(C)S[C@@H]2[C@H](NC(=O)[C@H](N)c3ccc(O)cc3)C(=O)N2[C@H]1C(=O)O [Amoxicillin] + CO/N=C(\C(=O)N[C@@H]1C(=O)N2C(C(=O)O)=C(COC(C)=O)CS[C@H]12)c1csc(N)n1 [Cefotaxime]
fitness
Conditions | first compound 0.0008 µg/mL | first compound 0.0015 µg/mL | first compound 0.003 µg/mL | first compound 0.0625 µg/mL | first compound 0.125 µg/mL | first compound 0.25 µg/mL
S. aureus DSM 20231 [2], partner 0.039 µg/mL | – | – | – | 0.465 | 0.283 | 0.128
S. aureus DSM 20231 [2], partner 0.078 µg/mL | – | – | – | 0.47 | 0.403 | 0.103
S. aureus DSM 20231 [2], partner 0.156 µg/mL | – | – | – | 0.464 | 0.221 | 0.0332
S. aureus DSM 20231 [2], partner 0.312 µg/mL | – | – | – | 0.456 | 0.0746 | 0.0409
S. aureus Newman [3], partner 0.078 µg/mL | – | – | – | 0.728 | 0.711 | 0.626
S. aureus Newman [3], partner 0.156 µg/mL | – | – | – | 0.575 | 0.551 | 0.51
S. aureus Newman [3], partner 0.312 µg/mL | – | – | – | 0.327 | 0.156 | 0.159
S. aureus Newman [3], partner 0.625 µg/mL | – | – | – | 0.191 | 0.0751 | 0.13
S. aureus Newman [3], partner 1.25 µg/mL | – | – | – | 0.0345 | 0.0453 | 0.0376
S. aureus Newman [3], partner 2.5 µg/mL | – | – | – | 0.0349 | 0.0311 | 0.0239
S. pneumoniae D39V [1], partner 0.0018 µg/mL | 0.993 | 0.998 | 0.977 | – | – | –
S. pneumoniae D39V [1], partner 0.0035 µg/mL | 0.986 | 0.967 | 0.889 | – | – | –
S. pneumoniae D39V [1], partner 0.007 µg/mL | 0.882 | 0.882 | 0.762 | – | – | –

one replicate
Conditions | fitness
S. aureus DSM 20231 [2], first compound 0.5 µg/mL, partner 0.039 µg/mL | 0.0334
S. aureus DSM 20231 [2], first compound 0.5 µg/mL, partner 0.078 µg/mL | 0.0321
S. aureus DSM 20231 [2], first compound 0.5 µg/mL, partner 0.156 µg/mL | 0.0325
S. aureus DSM 20231 [2], first compound 0.5 µg/mL, partner 0.312 µg/mL | 0.0506
S. aureus Newman [3], first compound 0.0625 µg/mL, partner 0.039 µg/mL | 0.709
S. aureus Newman [3], first compound 0.125 µg/mL, partner 0.039 µg/mL | 0.736
S. aureus Newman [3], first compound 0.25 µg/mL, partner 0.039 µg/mL | 0.749
S. pneumoniae D39V [1], first compound 0.006 µg/mL, partner 0.0018 µg/mL | 0.457
S. pneumoniae D39V [1], first compound 0.006 µg/mL, partner 0.0035 µg/mL | 0.344
S. pneumoniae D39V [1], first compound 0.006 µg/mL, partner 0.007 µg/mL | 0.176

Conditions | Bliss interaction score
B. subtilis 168 | 0.0789
S. aureus DSM 20231 [5] | -0.14
S. aureus Newman [6] | -0.0401
S. pneumoniae D39V [4] | -0.0441

CC1(C)S[C@@H]2[C@H](NC(=O)[C@H](N)c3ccc(O)cc3)C(=O)N2[C@H]1C(=O)O [Amoxicillin] + CO/N=C(\C(=O)N[C@@H]1C(=O)N2C(C(=O)[O-])=C(C[N+]3(C)CCCC3)CS[C@H]12)c1csc(N)n1 [Cefepime]
Conditions | fitness
S. aureus DSM 20231 [2], first compound 0.0625 µg/mL, partner 0.125 µg/mL | 0.566
S. aureus DSM 20231 [2], first compound 0.0625 µg/mL, partner 0.25 µg/mL | 0.553
S. aureus DSM 20231 [2], first compound 0.0625 µg/mL, partner 0.5 µg/mL | 0.499
S. aureus DSM 20231 [2], first compound 0.125 µg/mL, partner 0.125 µg/mL | 0.393
S. aureus DSM 20231 [2], first compound 0.125 µg/mL, partner 0.25 µg/mL | 0.477
S. aureus DSM 20231 [2], first compound 0.25 µg/mL, partner 0.125 µg/mL | 0.307
S. aureus DSM 20231 [2], first compound 0.25 µg/mL, partner 0.25 µg/mL | 0.195
S. aureus DSM 20231 [2], first compound 0.25 µg/mL, partner 0.5 µg/mL | 0.0559
S. aureus DSM 20231 [2], first compound 0.5 µg/mL, partner 0.125 µg/mL | 0
S. aureus DSM 20231 [2], first compound 0.5 µg/mL, partner 0.25 µg/mL | 0.0413
S. aureus DSM 20231 [2], first compound 0.5 µg/mL, partner 0.5 µg/mL | 0.0026
S. aureus Newman [3], first compound 0.0625 µg/mL, partner 0.125 µg/mL | 0.829
S. aureus Newman [3], first compound 0.0625 µg/mL, partner 0.25 µg/mL | 0.792
S. aureus Newman [3], first compound 0.0625 µg/mL, partner 0.5 µg/mL | 0.707
S. aureus Newman [3], first compound 0.125 µg/mL, partner 0.125 µg/mL | 0.906
S. aureus Newman [3], first compound 0.125 µg/mL, partner 0.25 µg/mL | 0.788
S. aureus Newman [3], first compound 0.125 µg/mL, partner 0.5 µg/mL | 0.736
S. aureus Newman [3], first compound 0.25 µg/mL, partner 0.125 µg/mL | 0.851
S. aureus Newman [3], first compound 0.25 µg/mL, partner 0.25 µg/mL | 0.725
S. aureus Newman [3], first compound 0.25 µg/mL, partner 0.5 µg/mL | 0.753
S. pneumoniae D39V [1], first compound 0.0008 µg/mL, partner 0.007 µg/mL | 0.977
S. pneumoniae D39V [1], first compound 0.0008 µg/mL, partner 0.014 µg/mL | 0.982
S. pneumoniae D39V [1], first compound 0.0008 µg/mL, partner 0.028 µg/mL | 0.849
S. pneumoniae D39V [1], first compound 0.0015 µg/mL, partner 0.007 µg/mL | 0.989
S. pneumoniae D39V [1], first compound 0.0015 µg/mL, partner 0.0078 µg/mL | ≥ 1
S. pneumoniae D39V [1], first compound 0.0015 µg/mL, partner 0.014 µg/mL | 0.959
S. pneumoniae D39V [1], first compound 0.0015 µg/mL, partner 0.0155 µg/mL | ≥ 1
S. pneumoniae D39V [1], first compound 0.0015 µg/mL, partner 0.028 µg/mL | 0.82
S. pneumoniae D39V [1], first compound 0.0015 µg/mL, partner 0.031 µg/mL | 0.792
S. pneumoniae D39V [1], first compound 0.003 µg/mL, partner 0.007 µg/mL | 0.943
S. pneumoniae D39V [1], first compound 0.003 µg/mL, partner 0.0078 µg/mL | ≥ 1
S. pneumoniae D39V [1], first compound 0.003 µg/mL, partner 0.014 µg/mL | 0.942
S. pneumoniae D39V [1], first compound 0.003 µg/mL, partner 0.0155 µg/mL | 0.907
S. pneumoniae D39V [1], first compound 0.003 µg/mL, partner 0.028 µg/mL | 0.813
S. pneumoniae D39V [1], first compound 0.003 µg/mL, partner 0.031 µg/mL | 0.499

fitness, S. pneumoniae D39V [1], one replicate
Conditions | partner 0.0078 µg/mL | partner 0.0155 µg/mL | partner 0.031 µg/mL
first compound 0.0008 µg/mL | ≥ 1 | ≥ 1 | 0.811
first compound 0.006 µg/mL | 0.484 | 0.384 | 0.103

Conditions | Bliss interaction score
B. subtilis 168 | 0.0811
S. aureus DSM 20231 [5] | 0.0643
S. aureus Newman [6] | -0.0522
S. pneumoniae D39V [4] | -0.0542

CC1(C)S[C@@H]2[C@H](NC(=O)[C@H](N)c3ccc(O)cc3)C(=O)N2[C@H]1C(=O)O [Amoxicillin] + COc1c(N2C[C@@H]3CCCN[C@@H]3C2)c(F)cc2c(=O)c(C(=O)O)cn(C3CC3)c12 [Moxifloxacin]
Conditions | fitness
S. aureus DSM 20231 [2], first compound 0.0625 µg/mL, partner 0.0075 µg/mL | 0.51
S. aureus DSM 20231 [2], first compound 0.0625 µg/mL, partner 0.015 µg/mL | 0.482
S. aureus DSM 20231 [2], first compound 0.0625 µg/mL, partner 0.03 µg/mL | 0.403
S. aureus DSM 20231 [2], first compound 0.125 µg/mL, partner 0.0075 µg/mL | 0.382
S. aureus DSM 20231 [2], first compound 0.125 µg/mL, partner 0.015 µg/mL | 0.374
S. aureus DSM 20231 [2], first compound 0.125 µg/mL, partner 0.03 µg/mL | 0.203
S. aureus DSM 20231 [2], first compound 0.25 µg/mL, partner 0.0075 µg/mL | 0.152
S. aureus DSM 20231 [2], first compound 0.25 µg/mL, partner 0.015 µg/mL | 0.119
S. aureus DSM 20231 [2], first compound 0.25 µg/mL, partner 0.03 µg/mL | 0.034
S. aureus DSM 20231 [2], first compound 0.5 µg/mL, partner 0.0075 µg/mL | 0.0102
S. aureus DSM 20231 [2], first compound 0.5 µg/mL, partner 0.015 µg/mL | 0.0002
S. aureus DSM 20231 [2], first compound 0.5 µg/mL, partner 0.03 µg/mL | 0.0026
S. aureus Newman [3], first compound 0.0625 µg/mL, partner 0.0075 µg/mL | 0.715
S. aureus Newman [3], first compound 0.0625 µg/mL, partner 0.015 µg/mL | 0.609
S. aureus Newman [3], first compound 0.125 µg/mL, partner 0.0075 µg/mL | 0.705
S. pneumoniae D39V [1], first compound 0.0008 µg/mL, partner 0.005 µg/mL | 0.968
S. pneumoniae D39V [1], first compound 0.0008 µg/mL, partner 0.01 µg/mL | 0.977
S. pneumoniae D39V [1], first compound 0.0008 µg/mL, partner 0.02 µg/mL | 0.913
S. pneumoniae D39V [1], first compound 0.0015 µg/mL, partner 0.005 µg/mL | 0.972
S. pneumoniae D39V [1], first compound 0.0015 µg/mL, partner 0.01 µg/mL | 0.967
S. pneumoniae D39V [1], first compound 0.0015 µg/mL, partner 0.02 µg/mL | 0.905
S. pneumoniae D39V [1], first compound 0.0015 µg/mL, partner 0.0312 µg/mL | 0.314
S. pneumoniae D39V [1], first compound 0.0015 µg/mL, partner 0.0625 µg/mL | 0.147
S. pneumoniae D39V [1], first compound 0.0015 µg/mL, partner 0.125 µg/mL | 0.0837
S. pneumoniae D39V [1], first compound 0.003 µg/mL, partner 0.005 µg/mL | 0.92
S. pneumoniae D39V [1], first compound 0.003 µg/mL, partner 0.01 µg/mL | 0.92
S. pneumoniae D39V [1], first compound 0.003 µg/mL, partner 0.02 µg/mL | 0.901
S. pneumoniae D39V [1], first compound 0.003 µg/mL, partner 0.0312 µg/mL | 0.277
S. pneumoniae D39V [1], first compound 0.003 µg/mL, partner 0.0625 µg/mL | 0.211
S. pneumoniae D39V [1], first compound 0.003 µg/mL, partner 0.125 µg/mL | 0.0689

one replicate
Conditions | fitness
S. aureus DSM 20231 [2], first compound 0.125 µg/mL, partner 0.06 µg/mL | 0.388
S. aureus DSM 20231 [2], first compound 0.125 µg/mL, partner 0.12 µg/mL | 0.0813
S. aureus DSM 20231 [2], first compound 0.25 µg/mL, partner 0.06 µg/mL | 0.112
S. aureus DSM 20231 [2], first compound 0.25 µg/mL, partner 0.12 µg/mL | 0.0126
S. aureus DSM 20231 [2], first compound 0.5 µg/mL, partner 0.06 µg/mL | 0.0085
S. aureus DSM 20231 [2], first compound 0.5 µg/mL, partner 0.12 µg/mL | 0.0156
S. pneumoniae D39V [1], first compound 0.0008 µg/mL, partner 0.0312 µg/mL | 0.209
S. pneumoniae D39V [1], first compound 0.0008 µg/mL, partner 0.0625 µg/mL | 0.167
S. pneumoniae D39V [1], first compound 0.0008 µg/mL, partner 0.125 µg/mL | 0.103
S. pneumoniae D39V [1], first compound 0.006 µg/mL, partner 0.0312 µg/mL | 0.0891
S. pneumoniae D39V [1], first compound 0.006 µg/mL, partner 0.0625 µg/mL | 0.0684
S. pneumoniae D39V [1], first compound 0.006 µg/mL, partner 0.125 µg/mL | 0.0138

Conditions | Bliss interaction score
B. subtilis 168 | 0.0481
S. aureus DSM 20231 [5] | -0.0301
S. aureus Newman [6] | 0.046
S. pneumoniae D39V [4] | 0.0639
